According to ChEMBL document CHEMBL3098015, “Synthesis and evaluation of 1-cyclopropyl-6-fluoro-1,4-dihydro-4-oxo-7-(4-(2-(4-substitutedpiperazin-1-yl)acetyl)piperazin-1-yl)quinoline-3-carboxylic acid derivatives as anti-tubercular and antibacterial agents” (Eur J Med Chem, 2014):
In brackets after ≈: the same amount, converted by molar mass.

Tests used:
Escherichia coli [1] = test: Antimicrobial activity against Escherichia coli ATCC 25922 after 24 hrs by broth microdilution method; type: functional; conditions: ATCC 25922, 24 h
Staphylococcus aureus [2] = test: Antimicrobial activity against Staphylococcus aureus ATCC 29213 after 24 hrs by broth microdilution method; type: functional; conditions: ATCC 29213, 24 h
[3] = Cytotoxicity against mouse RAW264.7 cells at 50 uM after 72 hrs by MTT assay; type: cell-based; conditions: read-out: INH
[4] = tested on: Mycobacterium tuberculosis; test: Antimicrobial activity against Mycobacterium tuberculosis H37Rv ATCC 27294 after 3 weeks by microbroth dilution method; type: functional; conditions: H37Rv ATCC 27294, 504 h
[5] = Selectivity index, ratio of IC50 for mouse RAW264.7 cells to MIC for Mycobacterium tuberculosis H37Rv ATCC 27294; type: toxicity; conditions: read-out: Selectivity Index
RAW264.7 = test: Cytotoxicity against mouse RAW264.7 cells after 72 hrs by MTT assay; type: cell-based; conditions: RAW264.7, 72 h
[6] = Inhibition of DNA gyrase (unknown origin) using relaxed pBR322 as substrate after 30 mins by agarose gel electrophoresis
Staphylococcus aureus [7] = test: Bactericidal activity against Staphylococcus aureus ATCC 29213 assessed as 3 log reduction in inoculum size after 24 hrs by broth microdilution method relative to control; type: functional; conditions: ATCC 29213, 24 h
Escherichia coli [8] = test: Bactericidal activity against Escherichia coli ATCC 25922 assessed as 3 log reduction in inoculum size after 24 hrs by broth microdilution method relative to control; type: functional; conditions: ATCC 25922, 24 h

SMILES | MIC99 (Escherichia coli [1]) | MIC99 (Staphylococcus aureus [2]) | cytotoxicity at 72 h, 50 µM [3] | MIC99 [4] | selectivity ratio [5] | IC50 (RAW264.7) | IC50 [6] | MBC (Staphylococcus aureus [7]) | MBC (Escherichia coli [8])
CC(c1ccccc1)N1CCN(CC(=O)N2CCN(c3cc4c(cc3F)c(=O)c(C(=O)O)cn4C3CC3)CC2)CC1 (stereo not drawn) | 3.56 µM (≈ 2 µg/mL) | 1.78 µM (≈ 1 µg/mL) | 16.9% | 28.6 µM (≈ 16 µg/mL) | 5.17 | 148 µM |  |  | 
O=C(O)c1cn(C2CC2)c2cc(N3CCN(C(=O)CN4CCN(Cc5ccccc5)CC4)CC3)c(F)cc2c1=O | 1.83 µM (≈ 1 µg/mL) | 1.83 µM (≈ 1 µg/mL) | 15.5% | 7.32 µM (≈ 4.01 µg/mL) | 22 | 161 µM | 7 µM |  | 
CCN1CCN(CC(=O)N2CCN(c3cc4c(cc3F)c(=O)c(C(=O)O)cn4C3CC3)CC2)CC1 | 16.5 µM (≈ 8.02 µg/mL) | 16.5 µM (≈ 8.02 µg/mL) | 13.3% | 33 µM (≈ 16 µg/mL) | 5.68 | 188 µM |  |  | 
O=C(O)c1cn(C2CC2)c2cc(N3CCN(C(=O)CN4CCN(c5ccccc5)CC4)CC3)c(F)cc2c1=O | 1.87 µM (≈ 0.998 µg/mL) | 0.93 µM (≈ 0.496 µg/mL) |  | > 120 µM |  |  |  | 7.51 µM (≈ 4.01 µg/mL) | 7.51 µM (≈ 4.01 µg/mL)
O=C(O)c1cn(C2CC2)c2cc(N3CCN(C(=O)CN4CCN(c5ccc(Cl)cc5)CC4)CC3)c(F)cc2c1=O | 7.06 µM (≈ 4.01 µg/mL) | 1.76 µM (≈ 1 µg/mL) |  | 113 µM (≈ 64.2 µg/mL) |  |  |  |  | 
CO[C@H]1/C=C/O[C@@]2(C)Oc3c(C)c(O)c4c(O)c(c(/C=N/N5CCN(C)CC5)c(O)c4c3C2=O)NC(=O)/C(C)=C\C=C\[C@H](C)[C@H](O)[C@@H](C)[C@@H](O)[C@@H](C)[C@H](OC(C)=O)[C@@H]1C [RIFAMPIN] |  |  |  | 0.14 µM (≈ 0.115 µg/mL) |  |  |  |  | 
N#Cc1ccc(N2CCN(CC(=O)N3CCN(c4cc5c(cc4F)c(=O)c(C(=O)O)cn5C4CC4)CC3)CC2)cc1 | 7.17 µM (≈ 4.01 µg/mL) | 7.17 µM (≈ 4.01 µg/mL) |  | > 115 µM |  |  |  |  | 
CN1CCN(CC(=O)N2CCN(c3cc4c(cc3F)c(=O)c(C(=O)O)cn4C3CC3)CC2)CC1 | 34 µM (≈ 16 µg/mL) | 34 µM (≈ 16 µg/mL) |  | 136 µM (≈ 64.2 µg/mL) |  |  |  |  | 
COc1cccc(N2CCN(CC(=O)N3CCN(c4cc5c(cc4F)c(=O)c(C(=O)O)cn5C4CC4)CC3)CC2)c1 | 3.55 µM (≈ 2 µg/mL) | 0.88 µM (≈ 0.496 µg/mL) |  | > 114 µM |  |  |  |  | 
O=C(O)c1cn(C2CC2)c2cc(N3CCN(C(=O)CN4CCN(C(c5ccc(F)cc5)c5ccc(F)cc5)CC4)CC3)c(F)cc2c1=O | > 24.3 µM | 1.51 µM (≈ 0.996 µg/mL) |  | > 97.2 µM |  |  |  |  | 
CC(=O)N1CCN(CC(=O)N2CCN(c3cc4c(cc3F)c(=O)c(C(=O)O)cn4C3CC3)CC2)CC1 | 16.1 µM (≈ 8.02 µg/mL) | 4.01 µM (≈ 2 µg/mL) | 16.2% | 16.1 µM (≈ 8.02 µg/mL) | 9.59 | 154 µM |  |  | 
CN(C)CCN1CCN(CC(=O)N2CCN(c3cc4c(cc3F)c(=O)c(C(=O)O)cn4C3CC3)CC2)CC1 | 7.58 µM (≈ 4.01 µg/mL) | 7.58 µM (≈ 4.01 µg/mL) |  | 121 µM (≈ 64.2 µg/mL) |  |  |  |  | 
O=C(O)c1cn(C2CC2)c2cc(N3CCNCC3)c(F)cc2c1=O [CIPROFLOXACIN] | 0.021 µM (≈ 0.00696 µg/mL) | 0.37 µM (≈ 0.123 µg/mL) |  |  |  |  |  |  | 
O=C(O)c1cn(C2CC2)c2cc(N3CCN(C(=O)CN4CCN(c5cccc(C(F)(F)F)c5)CC4)CC3)c(F)cc2c1=O | 6.66 µM (≈ 4.01 µg/mL) | 0.83 µM (≈ 0.499 µg/mL) |  | > 107 µM |  |  |  |  | 
O=C(O)c1cn(C2CC2)c2cc(N3CCN(C(=O)CN4CCN(c5cccc(O)c5)CC4)CC3)c(F)cc2c1=O | 3.64 µM (≈ 2 µg/mL) | 1.82 µM (≈ 1 µg/mL) |  | > 117 µM |  |  |  |  | 
O=C(O)c1cn(C2CC2)c2cc(N3CCN(C(=O)CN4CCN(c5ccccc5Cl)CC4)CC3)c(F)cc2c1=O | 0.88 µM (≈ 0.5 µg/mL) | 0.44 µM (≈ 0.25 µg/mL) | 14.9% | 28.2 µM (≈ 16 µg/mL) | 5.92 | 167 µM |  | 0.88 µM (≈ 0.5 µg/mL) | 7.06 µM (≈ 4.01 µg/mL)
O=C(O)c1cn(C2CC2)c2cc(N3CCN(C(=O)CN4CCN(C(c5ccccc5)c5ccccc5)CC4)CC3)c(F)cc2c1=O | 12.8 µM (≈ 8.01 µg/mL) | 0.8 µM (≈ 0.499 µg/mL) | 25.9% | 25.7 µM (≈ 16 µg/mL) | 3.75 | 96.6 µM |  |  | 
O=C(O)c1cn(C2CC2)c2cc(N3CCN(C(=O)CN4CCN(c5ncccn5)CC4)CC3)c(F)cc2c1=O | 3.74 µM (≈ 2 µg/mL) | 1.87 µM (≈ 1 µg/mL) | 11% | 59.9 µM (≈ 32.1 µg/mL) | 3.79 | 227 µM |  |  | 
O=C(O)c1cn(C2CC2)c2cc(N3CCN(C(=O)CN4CCN(c5ccc(F)c(F)c5)CC4)CC3)c(F)cc2c1=O | > 225 µM | > 225 µM |  | > 113 µM |  |  |  |  | 
O=C(O)c1cn(C2CC2)c2cc(N3CCN(C(=O)CN4CCN(c5ccccn5)CC4)CC3)c(F)cc2c1=O | 3.75 µM (≈ 2 µg/mL) | 1.87 µM (≈ 1 µg/mL) |  | > 120 µM |  |  |  |  | 
Cc1cccc(N2CCN(CC(=O)N3CCN(c4cc5c(cc4F)c(=O)c(C(=O)O)cn5C4CC4)CC3)CC2)c1 | 7.32 µM (≈ 4.01 µg/mL) | 1.83 µM (≈ 1 µg/mL) | 16.2% | 29.3 µM (≈ 16 µg/mL) | 5.26 | 154 µM |  |  | 
O=C(O)c1cn(C2CC2)c2cc(N3CCN(C(=O)CN4CCN(c5ccc([N+](=O)[O-])cc5)CC4)CC3)c(F)cc2c1=O | 13.8 µM (≈ 8.01 µg/mL) | 6.92 µM (≈ 4 µg/mL) |  | > 111 µM |  |  |  |  | 
COc1ccc(N2CCN(CC(=O)N3CCN(c4cc5c(cc4F)c(=O)c(C(=O)O)cn5C4CC4)CC3)CC2)cc1OC | 6.75 µM (≈ 4.01 µg/mL) | 1.68 µM (≈ 0.997 µg/mL) |  | > 108 µM |  |  |  |  | 
N#Cc1ccccc1N1CCN(CC(=O)N2CCN(c3cc4c(cc3F)c(=O)c(C(=O)O)cn4C3CC3)CC2)CC1 | 3.58 µM (≈ 2 µg/mL) | 0.89 µM (≈ 0.497 µg/mL) |  | > 115 µM |  |  |  |  | 
